Reference: ChEMBL document CHEMBL1201862, “PubChem BioAssay data set” (2004)
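Results reflect a 48-hour exposure of cells in 96-well plates to compound at five concentrations. Here, GI50 denotes the concentration required for 50% inhibition of growth.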 Calls of active or inactive are those of the source. No stated cut-off is given here; in the data, active = GI50 up to about 1.1 µM and inactive = higher.

Assays:
Experiment in all cases: NCI anticancer screen, dose series, 48 h
ACHN = tested on: ACHN
CAKI-1 = tested on: CAKI-1
CCRF-CEM = tested on: CCRF-CEM
HCC 2998 = tested on: HCC 2998
HT-29 = tested on: HT-29
K562 = tested on: K562
KM-20L2 = tested on: KM-20L2
MOLT-4 = tested on: MOLT-4
NCI-H23 = tested on: NCI-H23
NCI-H460 = tested on: NCI-H460
OVCAR-3 = tested on: OVCAR-3
OVCAR-4 = tested on: OVCAR-4
OVCAR-5 = tested on: OVCAR-5
SNB-19 = tested on: SNB-19
SR = tested on: SR
SW-620 = tested on: SW-620
UO-31 = tested on: UO-31
RXF 393 = tested on: RXF 393
DU-145 = tested on: DU-145
MCF7 = tested on: MCF7

Measured: GI50

CCOC(=O)C(=O)CC1=Nc2ccccc2SC(c2cccc(C)c2)C1 (configuration not stated)
inactive: ACHN 16.6 µM | CAKI-1 21.9 µM | CCRF-CEM 20.6 µM | HCC 2998 16.3 µM | HT-29 15.5 µM | K562 19.7 µM | KM-20L2 17.9 µM | MOLT-4 17.3 µM | NCI-H23 17.1 µM | NCI-H460 19.5 µM | OVCAR-3 19.5 µM | OVCAR-4 18 µM | OVCAR-5 16.8 µM | SNB-19 18.3 µM | SR 22.2 µM | SW-620 25.6 µM | UO-31 15.4 µM

Cc1ccc(S(=O)(=O)c2c(N)c3nc4ccccc4n3c3nc4ccccc4nc23)cc1
inactive: ACHN > 100 µM | CAKI-1 > 100 µM | CCRF-CEM > 100 µM | HCC 2998 > 100 µM | HT-29 > 100 µM | K562 > 100 µM | KM-20L2 > 100 µM | MOLT-4 > 100 µM | NCI-H23 > 100 µM | NCI-H460 > 100 µM | OVCAR-3 > 100 µM | OVCAR-4 38.7 µM | OVCAR-5 > 100 µM | SNB-19 > 100 µM | SR > 100 µM | SW-620 > 100 µM | UO-31 71.4 µM

COc1cc(C2C(C(=O)Nc3ccc(Cl)c(Cl)c3)=C(C)NC(C)=C2C(=O)Nc2ccc(Cl)c(Cl)c2)ccc1O
inactive: ACHN 10.8 µM | CAKI-1 14 µM | CCRF-CEM 3.26 µM | HCC 2998 11.4 µM | HT-29 15.1 µM | K562 6.68 µM | KM-20L2 19.8 µM | MOLT-4 4.31 µM | NCI-H23 12.5 µM | NCI-H460 12.8 µM | OVCAR-3 9.82 µM | OVCAR-4 5.3 µM | OVCAR-5 19.4 µM | RXF 393 2.64 µM | SNB-19 12.3 µM | SW-620 12.3 µM | UO-31 12 µM

CN1c2ccccc2N(C(=O)c2ccccc2)C(CC(=O)O)c2cccn21 (configuration not stated)
inactive: ACHN > 100 µM | CAKI-1 > 100 µM | CCRF-CEM > 100 µM | HCC 2998 > 100 µM | HT-29 > 100 µM | K562 > 100 µM | KM-20L2 > 100 µM | MOLT-4 > 100 µM | NCI-H23 > 100 µM | NCI-H460 > 100 µM | OVCAR-3 > 100 µM | OVCAR-4 > 100 µM | OVCAR-5 > 100 µM | RXF 393 43.1 µM | SNB-19 > 100 µM | SW-620 > 100 µM | UO-31 > 100 µM

CC(C)(C)OC(=O)N[C@H]1CC(=O)c2ccccc2N(CC(=O)O)C1=O
inactive: ACHN > 100 µM | CAKI-1 > 100 µM | CCRF-CEM > 100 µM | HCC 2998 > 100 µM | HT-29 > 100 µM | KM-20L2 > 100 µM | MOLT-4 > 100 µM | NCI-H23 > 100 µM | NCI-H460 > 100 µM | OVCAR-3 > 100 µM | OVCAR-4 > 100 µM | RXF 393 > 100 µM | SNB-19 > 100 µM | SW-620 > 100 µM | UO-31 > 100 µM

CC(=O)O[C@]12CCC[C@H]1C1(O)C(O)CCC[C@H]12 (some centres not stated)
inactive: ACHN > 100 µM | CCRF-CEM > 100 µM | HT-29 > 100 µM | K562 > 100 µM | KM-20L2 > 100 µM | MOLT-4 > 100 µM | NCI-H23 > 100 µM | NCI-H460 > 100 µM | OVCAR-4 > 100 µM | RXF 393 > 100 µM | SNB-19 > 100 µM | SR > 100 µM | SW-620 > 100 µM | UO-31 > 100 µM

COC(CN1C=C(Sc2ccccc2)CC1)OC
inactive: ACHN 34.6 µM | CAKI-1 41.4 µM | CCRF-CEM 19.5 µM | HCC 2998 33.9 µM | HT-29 24.8 µM | K562 20.7 µM | KM-20L2 38.8 µM | MOLT-4 27.2 µM | NCI-H23 23.7 µM | NCI-H460 31.7 µM | OVCAR-3 20.2 µM | OVCAR-4 34 µM | OVCAR-5 49.2 µM | RXF 393 20.8 µM | SNB-19 37.8 µM | SW-620 21.9 µM | UO-31 29.9 µM

Nc1nnc(-c2ccco2)c(-c2ccco2)n1
inactive: ACHN > 100 µM | CAKI-1 > 100 µM | CCRF-CEM > 100 µM | DU-145 > 100 µM | HCC 2998 > 100 µM | HT-29 > 100 µM | K562 > 100 µM | MCF7 > 100 µM | MOLT-4 > 100 µM | NCI-H23 > 100 µM | NCI-H460 > 100 µM | OVCAR-3 > 100 µM | OVCAR-4 > 100 µM | OVCAR-5 > 100 µM | RXF 393 > 100 µM | SNB-19 > 100 µM | SR > 100 µM | SW-620 > 100 µM | UO-31 49.9 µM

O=C(CSc1nc(-c2ccccc2)c(-c2ccccc2)[nH]1)NNC(=S)Nc1ccccc1
inactive: ACHN 85.1 µM | CAKI-1 81.7 µM | CCRF-CEM 39.4 µM | HCC 2998 > 100 µM | HT-29 69.2 µM | KM-20L2 > 100 µM | MOLT-4 33.7 µM | NCI-H23 > 100 µM | NCI-H460 > 100 µM | OVCAR-3 59.8 µM | OVCAR-4 64 µM | OVCAR-5 > 100 µM | SNB-19 > 100 µM | SR 57.5 µM | SW-620 > 100 µM | UO-31 71.9 µM

COC(=O)C(Cc1cc(OC)c(OC)c(OC)c1)c1ccc(OC)cc1 (configuration not stated)
inactive: ACHN > 100 µM | CAKI-1 > 100 µM | CCRF-CEM 88.5 µM | HT-29 > 100 µM | K562 88.9 µM | KM-20L2 > 100 µM | MOLT-4 62.7 µM | NCI-H460 > 100 µM | OVCAR-3 95.7 µM | OVCAR-4 > 100 µM | OVCAR-5 44.7 µM | RXF 393 > 100 µM | SNB-19 > 100 µM | SW-620 > 100 µM | UO-31 > 100 µM

O=C(O)CCC(=O)C(=O)O [ALPHA-KETOGLUTARIC ACID]
inactive: ACHN > 100 µM | CAKI-1 > 100 µM | CCRF-CEM > 100 µM | DU-145 > 100 µM | HCC 2998 > 100 µM | HT-29 > 100 µM | K562 > 100 µM | MCF7 > 100 µM | MOLT-4 > 100 µM | NCI-H23 > 100 µM | NCI-H460 > 100 µM | OVCAR-3 > 100 µM | OVCAR-4 > 100 µM | OVCAR-5 > 100 µM | RXF 393 > 100 µM | SNB-19 > 100 µM | SR > 100 µM | SW-620 > 100 µM | UO-31 > 100 µM

CC[C@]12CCCN3CCc4c(n(c5ccccc45)C(=O)C1)[C@@H]32 [VINBURNINE]
inactive: ACHN 32.4 µM | CAKI-1 > 100 µM | CCRF-CEM 1.31 µM | DU-145 19.2 µM | HCC 2998 3.92 µM | HT-29 3.56 µM | K562 2.9 µM | MCF7 3.51 µM | MOLT-4 12.2 µM | NCI-H23 13.7 µM | NCI-H460 3.72 µM | OVCAR-3 2.44 µM | OVCAR-4 18.2 µM | OVCAR-5 34.6 µM | RXF 393 15.6 µM | SNB-19 14.5 µM | SR 1.31 µM | SW-620 3.94 µM | UO-31 4.75 µM
